Results from patent US20240217963A1, “RECEPTOR-INTERACTING PROTEIN 1 INHIBITORS, PREPARATIONS, AND USES THEREOF” (SIRONAX LTD., priority 2021, published 2024).

The compounds below were run against T1, RIP1 (Homo sapiens, UniProt Q13546) (assay: Cellular RIP1 inhibitory activity: HT-29 necroptosis (TNFα/SMAC mimetic/zVAD-FMK) CellTiter-Glo viability assay). Conditions: HT-29 cells, TNF-α 10 ng/ml + SMAC mimetic 6 μM + zVAD-FMK 10 μM, 20 hours, geometric mean, read-out: EC50 Values of in vitro Cellular RIP1 Inhibitory Activity.
T1 sequence (Q13546 1-671): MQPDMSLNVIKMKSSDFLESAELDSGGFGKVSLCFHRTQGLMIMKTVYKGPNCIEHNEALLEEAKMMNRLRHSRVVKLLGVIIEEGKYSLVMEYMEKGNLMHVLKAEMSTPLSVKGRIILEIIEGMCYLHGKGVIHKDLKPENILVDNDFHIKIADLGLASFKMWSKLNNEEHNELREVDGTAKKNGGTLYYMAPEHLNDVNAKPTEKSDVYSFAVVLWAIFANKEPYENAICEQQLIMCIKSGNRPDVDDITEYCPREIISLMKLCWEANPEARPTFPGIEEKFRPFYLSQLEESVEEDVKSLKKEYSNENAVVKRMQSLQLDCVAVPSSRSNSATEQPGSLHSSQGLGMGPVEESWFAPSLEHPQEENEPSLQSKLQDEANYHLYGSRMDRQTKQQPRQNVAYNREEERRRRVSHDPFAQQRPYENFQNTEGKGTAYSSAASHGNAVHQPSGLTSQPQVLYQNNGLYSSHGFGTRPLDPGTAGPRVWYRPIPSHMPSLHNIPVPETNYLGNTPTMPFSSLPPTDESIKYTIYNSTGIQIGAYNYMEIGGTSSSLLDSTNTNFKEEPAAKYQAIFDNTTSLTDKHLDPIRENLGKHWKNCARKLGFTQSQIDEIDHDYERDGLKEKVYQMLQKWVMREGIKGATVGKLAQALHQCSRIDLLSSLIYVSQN
Type: cell-based
Experimental: Compounds 1-99 (denoted as Cmpd Nos. 1 through 99 in Table 2 below) of the disclosure were tested for binding and cellular RIP1 inhibitory activity following the experimental procedures described below. Cell Seeding • 1. HT-29 cells were checked every day to make sure that they were healthy and growing as expected. They were subjected to sub-culturing when they were approximately 80% confluent. • 2. The culture medium, McCOY's 5 A medium (Gibco, Cat No. 16600-082) with 10% fetal bovine serum or FBS (Gibco, Cat No. 10099-141C), was pre-warmed in a 37° C. water bath for at least 30 min. • 3. When the cells had reached a desired level of confluency of 80% in a T75 flask, the medium was aspirated, and the cells were washed with warm phosphate buffered saline or PBS two times. • 4. 2-3 ml fresh warm trypsin (Gibco, Cat No. 25200-056) solution was added to the washed cells. The flask with the cells was transferred to a 37° C. incubator. • 5. After 5 minutes, the side of the flask was tapped, and the flask was examined under a microscope for detachment of the cells to the flask. If necessary, the cells were kept in the incubator for an additional 5-10 minutes, with occasional tapping, until lifting was complete. • 6. The trypsin reaction was neutralized by transferring 6-9 ml cell culture medium to sterile 15 ml conical tubes, and by centrifuging the cell culture at 300×g for 7 minutes to pellet the cells (supernatant decanted). • 7. The cells were resuspended in fresh cell culture medium and the cell counting was performed using a hemocytometer. • 8. 100 μl of the resuspended cell culture medium containing ˜5,000 cells were transferred into each well of the sterile 96-well cell culture plate (Corning 3903) and cultured overnight at 37° C. with 5% CO2. Compound Titration and Treatment • 1. All test compounds were dissolved in DMSO (Dimethyl sulfoxide) to create a 20 mM stock. • 2. 3 μl of each compound 20 mM stock was mixed with 27 μl DMSO, and the compound solution was further diluted at a titration ratio of 1:3 (20 μl compound solution+40 μl DMSO) till the 10 points end. • 3. All culture medium was removed from assay plates filled with HT-29 cell cultures. […] 0.5 μL of the diluted compound solution was added to the corresponding 96-well assay plates. • 5. The assay plates were incubated for 20 hours at 37° C. with 5% CO2. Cell Viability Detection • 1. The CellTiter-Glo® Luminescent Cell Viability Assay was employed to detect the ATP levels of viable HT-29 cells. • 2. The CellTiter-Glo® buffer and the lyophilized substrate were equilibriated to room temperature prior to use. • 3. The CellTiter-Glo® substrate was resuspended with CellTiter-Glo® buffer, then mixed by gently vortexing to obtain a homogeneous solution. • 4. 20 μl the enzyme/substrate mixture was transferred by multi-channel pipetting into 96-well assay plates. • 5. The assay plates were placed on an orbital shaker and the contents were shaken for 3 minutes to induce cell lysis. • 6. The assay plates were incubated at room temperature for 10 minutes to stabilize the luminescent signal. • 7. The luminescence signals were read and recorded with EnVision. • 8. The geometric mean EC50 values were calculated from 10 points response dose with duplicates. In Table 2, activity is provided as follows: +++=0.1 nM≤EC50<100 nM; ++=100 nM≤EC50<1000 nM; +=1000 nM≤EC50<10000 nM.

`Cc1nc(C)c(CNC(=O)C2CCN(c3ncc(F)c(-c4c(C)cnn4C)n3)CC2)s1` [Compound 22, 1-(4-(1,4-dimethyl-1H-pyrazol-5-yl)-5-fluoropyrimidin-2-yl)-N-((2,4-dimethylthiazol-5-yl)methyl)piperidine-4-carboxamide] and `Cc1ncc(CNC(=O)C2CCN(c3ncc(F)c(-c4c(C)cnn4C)n3)CC2)s1` [Compound 50, 1-(4-(1,4-dimethyl-1H-pyrazol-5-yl)-5-fluoropyrimidin-2-yl)-N-((2-methylthiazol-5-yl)methyl)piperidine-4-carboxamide] fall in the same range of EC50: 100 to 1000 nM for the first, 100 to 1000 nM for the second.

First: Cc1cnn(C)c1-c1nc(N2CCC(C(=O)N(C)Cc3cc(C)n(C)n3)CC2)ncc1F [Compound 79, N-((1,5-dimethyl-1H-pyrazol-3-yl)methyl)-1-(4-(1,4-dimethyl-1H-pyrazol-5-yl)-5-fluoropyrimidin-2-yl)-N-methylpiperidine-4-carboxamide]
Second: Cc1csc(CN(C)C(=O)C2CCN(c3ncc(F)c(-c4c(C)cnn4C)n3)CC2)n1 [Compound 71, 1-(4-(1,4-dimethyl-1H-pyrazol-5-yl)-5-fluoropyrimidin-2-yl)-N-methyl-N-((4-methylthiazol-2-yl)methyl)piperidine-4-carboxamide]
The EC50 of the first is higher: 100 to 1000 nM for the first, 0.1 to 100 nM for the second.

`Cc1cnn(C)c1-c1cc(OC2CC(C(=O)N(O)Cc3cc(F)cc(F)c3)C2)c(F)cn1` (centres unmarked) [Compound 53] and `Cc1cnn(C)c1-c1ncc(F)c(N2CCC(C(=O)N(O)Cc3cc(F)cc(F)c3)CC2)n1` [Compound 55, N-(3,5-difluorobenzyl)-1-(2-(1,4-dimethyl-1H-pyrazol-5-yl)-5-fluoropyrimidin-4-yl)-N-hydroxypiperidine-4-carboxamide] fall in the same range of EC50: 0.1 to 100 nM for the first, 0.1 to 100 nM for the second.

`Cc1cnn(C)c1-c1nc(N2CCC(C(=O)N(O)Cc3ccccn3)CC2)ncc1F` [Compound 31, 1-(4-(1,4-dimethyl-1H-pyrazol-5-yl)-5-fluoropyrimidin-2-yl)-N-hydroxy-N-(pyridin-2-ylmethyl)piperidine-4-carboxamide] and `Cc1cnn(C)c1-c1nc(N2CCC(C(=O)N(O)Cc3ccc(F)cn3)CC2)ncc1F` [Compound 10, 1-(4-(1,4-dimethyl-1H-pyrazol-5-yl)-5-fluoropyrimidin-2-yl)-N-((5-fluoropyridin-2-yl)methyl)-N-hydroxypiperidine-4-carboxamide] fall in the same range of EC50: 0.1 to 100 nM for the first, 0.1 to 100 nM for the second.

Compared with `Cc1cnn(C)c1-c1nc(N2CCC(C(=O)NCC3CCCCC3)CC2)ncc1F` [Compound 28, N-(cyclohexylmethyl)-1-(4-(1,4-dimethyl-1H-pyrazol-5-yl)-5-fluoropyrimidin-2-yl)piperidine-4-carboxamide], `Cc1cnn(C)c1-c1nc(N2CCC(C(=O)NCc3cscn3)CC2)ncc1F` [Compound 57, 1-(4-(1,4-dimethyl-1H-pyrazol-5-yl)-5-fluoropyrimidin-2-yl)-N-(thiazol-4-ylmethyl) piperidine-4-carboxamide] is higher in EC50: 0.1 to 100 nM for the first, 100 to 1000 nM for the second.

`Cc1cnn(C)c1-c1nc(N2CCC(C(=O)N(O)Cc3cc(F)cc(C#N)c3)CC2)ncc1F` [Compound 32, N-(3-cyano-5-fluorobenzyl)-1-(4-(1,4-dimethyl-1H-pyrazol-5-yl)-5-fluoropyrimidin-2-yl)-N-hydroxypiperidine-4-carboxamide] and `Cc1cnn(C)c1-c1nc(N2CCC(C(=O)N(O)Cc3ccnc(F)c3)CC2)ncc1F` [Compound 20, 1-(4-(1,4-dimethyl-1H-pyrazol-5-yl)-5-fluoropyrimidin-2-yl)-N-((2-fluoropyridin-4-yl)methyl)-N-hydroxypiperidine-4-carboxamide] fall in the same range of EC50: 0.1 to 100 nM for the first, 0.1 to 100 nM for the second.

First: Cc1cnn(C)c1-c1nc(N2CCC(C(=O)NCc3ccn(C)n3)CC2)ncc1F [Compound 44, 1-(4-(1,4-dimethyl-1H-pyrazol-5-yl)-5-fluoropyrimidin-2-yl)-N-((1-methyl-1H-pyrazol-3-yl)methyl)piperidine-4-carboxamide]
Second: Cc1cnn(C)c1-c1nc(N2CCC(C(=O)NCc3cncs3)CC2)ncc1F [Compound 58]
The EC50 of the first is higher: 1000 to 10000 nM for the first, 100 to 1000 nM for the second.

`[2H]C([2H])([2H])N(Cc1nc(C)cs1)C(=O)C1CCN(c2ncc(F)c(-c3c(C)cnn3C)n2)CC1` [Compound 78, 1-(4-(1,4-dimethyl-1H-pyrazol-5-yl)-5-fluoropyrimidin-2-yl)-N-(methyl-d3)-N-((4-methylthiazol-2-yl)methyl)piperidine-4-carboxamide] and `CCN(Cc1cscn1)C(=O)C1CCN(c2ncc(F)c(-c3c(C)cnn3C)n2)CC1` [Compound 94, 1-(4-(1,4-dimethyl-1H-pyrazol-5-yl)-5-fluoropyrimidin-2-yl)-N-ethyl-N-(thiazol-4-ylmethyl) piperidine-4-carboxamide] fall in the same range of EC50: 0.1 to 100 nM for the first, 0.1 to 100 nM for the second.

Compared with `O=C(C1CCN(c2ncc(F)cn2)CC1)N(O)Cc1cc(F)cc(F)c1` [Compound 30, N-(3,5-difluorobenzyl)-1-(5-fluoropyrimidin-2-yl)-N-hydroxypiperidine-4-carboxamide], `Cc1cnn(C)c1-c1nc(N2CCC(C(=O)N(O)Cc3ccc(F)nc3)CC2)ncc1F` [Compound 26] is lower in EC50: 100 to 1000 nM for the first, 0.1 to 100 nM for the second.

First: Cc1nc(C)n(-c2nc(N3CCC(C(=O)N(O)Cc4ccccn4)CC3)ncc2F)n1 [Compound 7, 1-(4-(3,5-dimethyl-1H-1,2,4-triazol-1-yl)-5-fluoropyrimidin-2-yl)-N-h ydroxy-N-(pyridin-2-ylmethyl)piperidine-4-carboxamide]
Second: Cc1nc(C)n(-c2nc(N3CCC(C(=O)N(C)Cc4cc(F)cc(F)c4F)CC3)ncc2F)n1 [Compound 65, 1-(4-(3,5-dimethyl-1H-1,2,4-triazol-1-yl)-5-fluoropyrimidin-2-yl)-N-methyl-N-(2,3,5-trifluorobenzyl)piperidine-4-carboxamide]
The EC50 of the first is higher: 100 to 1000 nM for the first, 0.1 to 100 nM for the second.

`[2H]C([2H])([2H])N(C(=O)C1CCN(c2ncc(F)c(-c3nnc(C)s3)n2)CC1)C([2H])([2H])c1cc(F)cc(F)c1F` [Compound 97, 1-(5-fluoro-4-(5-methyl-1,3,4-thiadiazol-2-yl)pyrimidin-2-yl)-N-(methyl-d3)-N-((2,3,5-trifluorophenyl)methyl-d2)piperidine-4-carboxamide] and `Cc1cnn(C)c1-c1nc(N2CCC(C(=O)N(O)Cc3cnn(C)c3)CC2)ncc1F` [Compound 3, 1-(4-(1,4-dimethyl-1H-pyrazol-5-yl)-5-fluoropyrimidin-2-yl)-N-hydroxy-N-((1-methyl-1H-pyrazol-4-yl)methyl)piperidine-4-carboxamide] fall in the same range of EC50: 0.1 to 100 nM for the first, 0.1 to 100 nM for the second.

Work on `Cc1cnn(C)c1-c1nc(N2CCN(C(=O)N(O)Cc3cc(F)cc(F)c3)CC2)ncc1F` [Compound 29, N-(3,5-difluorobenzyl)-4-(4-(1,4-dimethyl-1H-pyrazol-5-yl)-5-fluoropyrimidin-2-yl)-N-hydroxypiperazine-1-carboxamide] yielded an EC50 of 0.1 to 100 nM.
